# Where two headings read alike, the source gives them in different places.
# Columns and labels:
# A375 melanoma cells [1] = assay: [3H]-thymidine incorporation (DNA biosynthesis), A375; format: cell-based, human; settings: read-out: IC50, effect on DNA biosynthesis ([3H]-thymidine incorporation)
# C32 melanoma cells [2] = assay: [3H]-thymidine incorporation (DNA biosynthesis), C32; format: cell-based, human; settings: read-out: IC50, effect on DNA biosynthesis ([3H]-thymidine incorporation)
# Procedure: The inhibition of DNA biosynthesis was evaluated using [^3H]-thymidine incorporation into the DNA of melanoma cells (C32, A375) and fibroblasts treated with the studied compounds [21]. The cells were briefly seeded in 24-well plates (1 × 10^5 cells per well) and allowed to adhere for 24 h. […] After incubation for 24, 48, and 72 h, the cells were rinsed three times with PBS. Then, cells were lysed in 1 mL of 0.1 M NaOH containing 1% SDS. The cell lysate was moved into scintillation vials containing scintillation liquid, and the radioactivity of the samples was measured using a liquid scintillation analyzer (Perkin-Elmer, Waltham, MA, USA).
# [3] = system: human skin fibroblasts (CCD25Sk); assay: [3H]-thymidine incorporation (DNA biosynthesis), normal cells; format: cell-based; settings: Homo sapiens, Skin fibroblast, read-out: IC50, effect on DNA biosynthesis ([3H]-thymidine incorporation)
# A375 melanoma cells [4] = assay: Apoptosis assay, annexin V/PI flow cytometry, A375; format: cell-based, human; settings: A375, 25 µM, 48 h
# Procedure: Firstly, cells were placed in 6-well plates at a density of 1 × 10^5 cells per well and allowed to adhere for 24 h. Then, cells were treated with 25 µM, 50 µM, and 100 μM of the selected flavonoids (1, 6, 15, 16, 17, 37) and incubated for 48 h. Floating and adherent cells were collected and assayed using the manufacturer’s protocol supported by the Dead Cell Apoptosis Kit for flow cytometry. Concisely, 100 μL of an annexin-binding buffer containing a 5 μL annexin V-FITC conjugate solution and 1 μg/mL PI (propidium iodide) was used to disperse the cells. After 15 min of incubation, an additional 400 μL of the mentioned buffer was added. The cells were analyzed with a DxFLEX flow cytometer (Beckman Coulter, Brea, CA, USA).
# [5] = system: caspases, PARP, phospho-RSK in A375 cells; assay: Western immunoblot of apoptosis mediators and RSK, A375; format: cell-based, human; settings: A375, 48 h, Western blot
# Procedure: Floating cells were harvested by centrifugation of the conditioned media (300× g, 5 min). Cell pellet and adherent cells were lysed in a cell lysis buffer supplemented with inhibitors of proteases and phosphatases. The cell lysate was sonicated (2 × 10 s) on ice with an ultrasonic homogenizer (UP200S, Hielscher Ultrasonics GmbH, Teltow, Germany) and centrifuged for 10 min at 10,000× g. The supernatant was collected and stored in a freezer at −70 °C. Protein concentrations in the cell supernatants were determined using a Lowry assay. Obtained proteins were dissolved on SDS-PAGE gels (7.5%, 10%, or 12%) using the Mini-Protean Tetra system. The proteins were transferred to nitrocellulose membranes using the Mini Trans-Blot Cell wet blotting system. The 5% skim milk was used to block membranes. Then, membranes were probed for 24 h at 4 °C with the following antibodies: anti-phospho-RSK, anti-RSK, anti-PARP, anti-cleaved PARP, anti-caspase-8, anti-caspase-9, anti-caspase-7, anti-caspase-3, and anti-actin. Membranes were incubated with an ECL-HRP (enhanced chemiluminescence-horseradish peroxidase) substrate, and the signal was spotted using the BioSpectrum Imaging System and VisionWorks LS software 7.0 (Ultra-Violet Products, Ltd., San Gabriel, CA, USA). The intensity of the bands was quantified by densitometric analysis using UVIBand software, version 15.08d (Uvitec Ltd., Cambridge, UK).
# [6] = system: cleaved caspase-3 and cleaved caspase-7 in C32 cells; assay: Immunofluorescence of cleaved caspase-3/-7, C32; format: cell-based, human; settings: C32, 48 h, immunofluorescent staining
# Procedure: Firstly, to examine fluorescent signals, cells were placed in the bottom of 96-well black plates at 1 × 10^4 cells per well and permitted to adhere for 24 h. […] After incubating and removing the medium, cells were fixed in 4% paraformaldehyde for 15 min. Later, cells were rinsed three times with PBS and permeabilized with 0.1% Triton X-100 for 5 min at room temperature. The 10% heat-inactivated goat serum in the PBS was used to block non-specific binding. Subsequently, cells were treated with the following antibodies overnight: anti-cleaved caspase 3 and anti-cleaved caspase-7. […] Cell nuclei were stained with Hoechst 33342 and F-actin was stained with Phalloidin-Atto 488. Fluorescent signals were captured using a BD Pathway 855 confocal microscope (Becton Dickinson, Franklin Lakes, NJ, USA). The mean fluorescence intensity was calculated using ImageJ software (National Institutes of Health, Bethesda, Rockville, MD, USA).
# [7] = system: SK-MEL-2 malignant melanoma cell line; parameters: method as in PMID 36991237; settings: read-out: IC50, inhibition of viability, MTS test; cited from earlier work
# [8] = system: G-361 malignant melanoma cell line; parameters: method as in PMID 36991237; settings: read-out: IC50, inhibition of viability, MTS test; cited from earlier work
# C32 melanoma cells [9] = assay: MTT cell viability assay, C32; settings: Homo sapiens, read-out: IC50, cytotoxic activity, MTT test;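 further: MTT added for 2 h, cells lysed in DMSO, absorbance read at 570 nm, compound vehicle kept at or below 0.1% DMSO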
# A375 melanoma cells [10] = assay: MTT cell viability assay, A375; settings: Homo sapiens;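 further: Read-out is formazan absorbance at 570 nm after 2 h with MTT, with compounds in at most 0.1% v/v DMSO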
# C32 melanoma cells [11] = assay: Neutral red uptake (NRU) assay, C32; settings: Homo sapiens
# A375 melanoma cells [12] = assay: Neutral red uptake (NRU) assay, A375; settings: Homo sapiens, read-out: IC50, cytotoxic activity, NRU assay
# Procedure: (§1) The NRU (neutral red uptake) was conducted as previously described by Szoka and co-workers, with some modifications [22]. Briefly, melanoma cells and fibroblasts were seeded in microplates at the density of 1 × 10^4 cells per well and allowed to adhere for 24 h. […] After treatment, the culture medium was replaced with a neutral red solution (40 µg/mL). An additional 2 h of incubation was performed. The neutral red solution was then removed and the neutral red accumulated in the cells was dissolved in 50% EtOH with 1% of the glacial acetic acid. The absorbance was estimated at 540 nm and IC50 values were calculated using GraphPad Prism software (GraphPad Software, San Diego, CA, USA).
# [13] = MTT cell viability assay, normal cells; settings: human, human skin fibroblasts (CCD25Sk);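 further: fibroblasts served as non-cancer comparison line for selectivity versus melanoma cells, MTT reduction read as absorbance at 570 nm after 2 h dye exposure, compounds in ≤0.1% DMSO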
# [14] = Neutral red uptake (NRU) assay, normal cells; settings: human, human skin fibroblasts (CCD25Sk)
# Procedure: as §1
smiles,measurement,setting,value
"O=c1cc(-c2ccccc2)oc2c(O)c(O)ccc12 [Compound 16, 7,8-dihydroxyflavone]",IC50,"A375 melanoma cells [1]; A375, 48 h",29.7 ± 1.6 µM
same,IC50,"A375 melanoma cells [1]; Homo sapiens, A-375, A375, 24 h",62.1 ± 3.9 µM
same,IC50,"A375 melanoma cells [1]; Homo sapiens, A-375, A375, 48 h",29.7 ± 0.62 µM
same,IC50,"A375 melanoma cells [1]; Homo sapiens, A-375, A375, 72 h",20.5 ± 2.2 µM
same,IC50,"C32 melanoma cells [2]; C32, 48 h",18.4 ± 1.4 µM
same,IC50,"C32 melanoma cells [2]; Homo sapiens, C32, C32, 24 h",38.1 ± 1.5 µM
same,IC50,"C32 melanoma cells [2]; Homo sapiens, C32, C32, 48 h",18.4 ± 0.42 µM
same,IC50,"C32 melanoma cells [2]; Homo sapiens, C32, C32, 72 h",12.8 ± 0.9 µM
same,IC50,[3]; 24 h,81.6 ± 5.8 µM
same,IC50,[3]; 48 h,64.6 ± 2.8 µM
same,IC50,[3]; 72 h,37 ± 2.5 µM
same,level of early apoptotic cells,A375 melanoma cells [4],49.1 ± 3.9%
same,level of late apoptotic cells,A375 melanoma cells [4],6.4 ± 1.5%
same,cleavage of caspase-9,[5],weak cleavage
same,expression of cleaved caspase-8,[5],increased
same,phosphorylation of the RSK protein,[5],impaired
same,level of the cleaved caspase-7,[6],slightly increased
same,IC50,[7],200 to 250 µM
same,IC50,[8],200 to 250 µM
same,IC50,"C32 melanoma cells [9]; C32, 24 h",100 to 200 µM
same,IC50,"C32 melanoma cells [9]; C32, 48 h",39.2 ± 2.6 µM
same,IC50,"C32 melanoma cells [9]; C32, 72 h",26.2 ± 2.8 µM
same,IC50,"A375 melanoma cells [10]; A-375, 24 h, read-out: IC50, cytotoxic activity, MTT test, A375, 24 h",100 to 200 µM
same,IC50,"A375 melanoma cells [10]; A-375, 48 h, read-out: IC50, cytotoxic activity, MTT test, A375, 48 h",33.2 ± 3.2 µM
same,IC50,"A375 melanoma cells [10]; A-375, 72 h, read-out: IC50, cytotoxic activity, MTT test, A375, 72 h",20.5 ± 2.2 µM
same,IC50,"C32 melanoma cells [11]; C32, 24 h, read-out: IC50, cytotoxic activity, NRU assay, C32, 24 h",> 200 µM
same,IC50,"C32 melanoma cells [11]; C32, 48 h, read-out: IC50, cytotoxic activity, NRU assay, C32, 48 h",19.9 ± 1.2 µM
same,IC50,"C32 melanoma cells [11]; C32, 72 h, read-out: IC50, cytotoxic activity, NRU assay, C32, 72 h",16.5 ± 2.1 µM
same,IC50,"A375 melanoma cells [12]; A-375, 24 h",100 to 200 µM
same,IC50,"A375 melanoma cells [12]; A-375, 48 h",36 ± 3.5 µM
same,IC50,"A375 melanoma cells [12]; A-375, 72 h",27.4 ± 2.4 µM
same,IC50 at 24 h,[13],> 200 µM
same,IC50 at 48 h,[13],100 to 200 µM
same,IC50 at 72 h,[13],93.3 ± 8 µM
same,IC50 at 24 h,[14],> 200 µM
same,IC50 at 48 h,[14],100 to 200 µM
same,IC50 at 72 h,[14],72.9 ± 5.6 µM

# Reference: PMC10854695, “Using Flavonoid Substitution Status to Predict Anticancer Effects in Human Melanoma Cancers: An In Vitro Study” (Cancers, 2024)
